Measured values from patent publication US20200055839A1 (priority 2017, published 2020).

These compounds were tested on NL-RLuc virus (assay: Inhibition of HIV replication (NL-RLuc virus, luciferase readout in MT-2 cells)). Conditions: Human immunodeficiency virus 1, MT2, 120 h, MT-2 cells infected with NL-RLuc virus, 5 days of incubation, 10% FBS, at least 2 experiments.
Format: cell-based
Summary of the method: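 EC50 derived via median effect equation from at least 2 experiments, using luciferase expression as virus-growth readout. Replication-competent NL-RLuc reporter virus (nef partly replaced by Renilla luciferase) infected MT-2 cells with serial compound dilutions; 5-day incubation in RPMI 1640 plus 10% FBS.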

Compound	EC50 [nM]
Cc1ncc(-c2ccc(OCCc3ccc(F)cc3)c(F)c2)c(N2CCC(C)(C)CC2)c1[C@H](OC(C)(C)C)C(=O)O [Example 122, (S)-2-(tert-Butoxy)-2-(4-(4,4-dimethylpiperidin-1-yl)-5-(3-fluoro-4-(4-fluorophenethoxy)phenyl)-2-methylpyridin-3-yl)acetic acid]	1
Cc1ncc(-c2cnc(N(C)C)c(F)c2)c(N2CCC(C)(C)CC2)c1[C@H](OC(C)(C)C)C(=O)O [Example 114, (S)-2-(tert-Butoxy)-2-(6′-(dimethylamino)-4-(4,4-dimethylpiperidin-1-yl)-5′-fluoro-6-methyl-[3,3′-bipyridin]-5-yl)acetic acid]	24
Cc1nc(N)c(-c2ccc(OCCc3ccc(F)cc3)c(F)c2F)c(N2CCC(C)(C)CC2)c1[C@H](OC(C)(C)C)C(=O)O (single isomer, unassigned) [Example 70]	2
Cc1ncc(-c2cnc(O[C@H](C)C(C)C)c(F)c2)c(N2CCC(C)(C)CC2)c1[C@H](OC(C)(C)C)C(=O)O [Example 369, (2S)-2-(tert-butoxy)-2-[4-(4,4-dimethylpiperidin-1-yl)-5′-fluoro-6-methyl-6′-{[(2R)-3-methylbutan-2-yl]oxy}-[3,3′-bipyridine]-5-yl]acetic acid]	2
Cc1ncc(-c2cccc(C(=O)O)c2)c(N2CCC(C)(C)CC2)c1[C@H](OC(C)(C)C)C(=O)O [Example 147, 3-{5-[(S)-(tert-butoxy) (carboxy)methyl]-4-(4,4-dimethylpiperidin-1-yl)-6-methylpyridin-3-yl}benzoic acid]	328
COc1cc(-c2cnc(C)c([C@H](OC(C)(C)C)C(=O)O)c2N2CCC(C)(C)CC2)ccn1 [Example 164, (2S)-2-(tert-Butoxy)-2-[4-(4,4-dimethylpiperidin-1-yl)-2′-methoxy-6-methyl-[3, 4′-bipyridine]-5-yl]acetic acid]	4
Cc1nc(-c2cnn(C)c2C)c(-c2ccc(OCCc3ccc(F)cc3)cc2)c(N2CCC(C)(C)CC2)c1[C@H](OC(C)(C)C)C(=O)O [Example 49, (S)-2-(tert-Butoxy)-2-(6-(1,5-dimethyl-1H-pyrazol-4-yl)-4-(4,4-dimethylpiperidin-1-yl)-5-(4-(4-fluorophenethoxy)phenyl)-2-methylpyridin-3-yl)acetic acid]	0.7
CCOc1c(C(F)(F)F)ccc(-c2cnc(C)c([C@H](OC(C)(C)C)C(=O)O)c2N2CCC(C)(C)CC2)c1F [Example 173, (2S)-2-(tert-butoxy)-2-[4-(4,4-dimethylpiperidin-1-yl)-5-[3-ethoxy-2-fluoro-4-(trifluoromethyl)phenyl]-2-methylpyridin-3-yl]acetic acid]	21
Cc1ncc(-c2cnc(OCCc3ccccc3)c(F)c2)c(N2CCC(C)(C)CC2)c1[C@H](OC(C)(C)C)C(=O)O [Example 240, (S)-2-(tert-Butoxy)-2-(4-(4,4-dimethylpiperidin-1-yl)-5′-fluoro-6-methyl-6′-phenethoxy-[3,3′-bipyridin]-5-yl)acetic acid]	1
Cc1ncc(-c2cnc(OCCc3cc(F)cc(F)c3)c(F)c2)c(N2CCC(C)(C)CC2)c1[C@H](OC(C)(C)C)C(=O)O [Example 390, (2S)-2-(tert-butoxy)-2-{6′-[2-(3,5-difluorophenyl)ethoxy]-4-(4,4-dimethylpiperidin-1-yl)-5′-fluoro-6-methyl-[3,3′-bipyridine]-5-yl}acetic acid]	2
Cc1ncc(-c2cnc(OCC(C)(C)C)c(F)c2)c(N2CCC(C)(C)CC2)c1[C@H](OC(C)(C)C)C(=O)O [Example 375, (2S)-2-(tert-butoxy)-2-[4-(4,4-dimethylpiperidin-1-yl)-6′-(2,2-dimethylpropoxy)-5′-fluoro-6-methyl-[3,3′-bipyridine]-5-yl]acetic acid]	8
CC1(C)CCN(c2c(-c3ccc(OCCc4ccc(F)cc4)cc3)c(CO)nc(Cl)c2[C@H](OC(C)(C)C)C(=O)O)CC1 [Example 212, (S)-2-(tert-Butoxy)-2-(2-chloro-4-(4,4-dimethylpiperidin-1-yl)-5-(4-(4-fluorophenethoxy)phenyl)-6-(hydroxymethyl)pyridin-3-yl)acetic acid]	0.3
Cc1ncc(-c2ccc(F)nc2OCCc2ccc(F)cc2)c(N2CCC(C)(C)CC2)c1[C@H](OC(C)(C)C)C(=O)O (single isomer, unassigned) [Example 262]	1130
Cc1nc(Nc2ccc(C(=O)O)cn2)c(-c2ccc(OCCc3ccc(F)cc3)cc2)c(N2CCC(C)(C)CC2)c1[C@H](OC(C)(C)C)C(=O)O [Example 101, (S)-6-((5-(tert-Butoxy(carboxy)methyl)-4-(4,4-dimethylpiperidin-1-yl)-3-(4-(4-fluorophenethoxy)phenyl)-6-methylpyridin-2-yl)amino)nicotinic acid]	10
CCc1ccc(CCOc2ccc(-c3cnc(C)c([C@H](OC(C)(C)C)C(=O)O)c3N3CCC(C)(C)CC3)nc2)cc1 [Example 322, (2S)-2-(tert-butoxy)-2-[4′-(4,4-dimethylpiperidin-1-yl)-5-[2-(4-ethylphenyl)ethoxy]-6′-methyl-[2,3′-bipyridine]-5′-yl]acetic acid]	0.7
COc1ccc(-c2cnc(C)c([C@H](OC(C)(C)C)C(=O)O)c2N2CCC(C)(C)CC2)c(F)c1 [Example 181, (2S)-2-(tert-Butoxy)-2-[4-(4,4-dimethylpiperidin-1-yl)-5-(2-fluoro-4-methoxyphenyl)-2-methylpyridin-3-yl]acetic acid]	6
COc1ccc(CCOc2ncc(-c3cnc(C)c([C@H](OC(C)(C)C)C(=O)O)c3N3CCC(C)(C)CC3)cc2F)cc1 [Example 374, (2S)-2-(tert-butoxy)-2-[4-(4,4-dimethylpiperidin-1-yl)-5′-fluoro-6′-[2-(4-methoxyphenyl)ethoxy]-6-methyl-[3,3′-bipyridine]-5-yl]acetic acid]	0.3
Cc1ncc(-c2cccc(Cl)c2F)c(N2CCC(C)(C)CC2)c1[C@H](OC(C)(C)C)C(=O)O [Example 145, (2S)-2-(tert-Butoxy)-2-[5-(3-chloro-2-fluorophenyl)-4-(4,4-dimethylpiperidin-1-yl)-2-methylpyridin-3-yl]acetic acid]	5
Cc1ncc(-c2ccc(OCCc3ccc(F)cc3F)cn2)c(N2CCC(C)(C)CC2)c1[C@H](OC(C)(C)C)C(=O)O [Example 306, (2S)-2-(tert-butoxy)-2-{5-[2-(2,4-difluorophenyl)ethoxy]-4′-(4,4-dimethylpiperidin-1-yl)-6′-methyl-[2,3′-bipyridine]-5′-yl}acetic acid]	0.6
Cc1nn(C)cc1-c1nc(C)c([C@H](OC(C)(C)C)C(=O)O)c(N2CCC(C)(C)CC2)c1-c1ccc(OCCc2ccc(F)cc2)cc1 [Example 37, (S)-2-(tert-Butoxy)-2-(6-(1,3-dimethyl-1H-pyrazol-4-yl)-4-(4,4-dimethylpiperidin-1-yl)-5-(4-(4-fluorophenethoxy)phenyl)-2-methylpyridin-3-yl)acetic acid]	2
Cc1ncc(-c2ccc3ccncc3c2)c(N2CCC(C)(C)CC2)c1[C@H](OC(C)(C)C)C(=O)O [Example 176, (2S)-2-(tert-Butoxy)-2-[4-(4,4-dimethylpiperidin-1-yl)-5-(isoquinolin-7-yl)-2-methylpyridin-3-yl]acetic acid]	5
Cc1ncc(-c2cc(F)cc(F)c2F)c(N2CCC(C)(C)CC2)c1[C@H](OC(C)(C)C)C(=O)O [Example 174, (2S)-2-(tert-Butoxy)-2-[4-(4,4-dimethylpiperidin-1-yl)-2-methyl-5-(2,3,5-trifluorophenyl)pyridin-3-yl]acetic acid]	11
Cc1ncc(-c2ccc(OCC(C)C)nc2)c(N2CCC(C)(C)CC2)c1C(OC(C)(C)C)C(=O)O (stereo in doubt) [Example 409, (S)-2-(tert-butoxy)-2-(4-(4,4-dimethylpiperidin-1-yl)-6′-isobutoxy-6-methyl-[3,3′-bipyridin]-5-yl)acetic acid]	1
Cc1nc(-n2cncc2C)c(-c2ccc(OCCc3ccc(F)cc3)cc2)c(N2CCC(C)(C)CC2)c1[C@H](OC(C)(C)C)C(=O)O (single isomer, unassigned) [Example 55]	3
COc1cccc(-c2cnc(C)c([C@H](OC(C)(C)C)C(=O)O)c2N2CCC(C)(C)CC2)n1 [Example 189, (S)-2-(tert-Butoxy)-2-(4′-(4,4-dimethylpiperidin-1-yl)-6-methoxy-6′-methyl-[2, 3′-bipyridin]-5′-yl)acetic acid]	41
Cc1ncc(-c2ncc(OCCc3ccc(F)cc3)cn2)c(N2CCC(C)(C)CC2)c1[C@H](OC(C)(C)C)C(=O)O [Example 14, (S)-2-(tert-Butoxy)-2-(4-(4,4-dimethylpiperidin-1-yl)-5-(5-(4-fluorophenethoxy)pyrimidin-2-yl)-2-methylpyridin-3-yl)acetic acid]	2
Cc1ccccc1CCOc1ncc(-c2cnc(C)c([C@H](OC(C)(C)C)C(=O)O)c2N2CCC(C)(C)CC2)cc1F [Example 385, (2S)-2-(tert-butoxy)-2-[4-(4,4-dimethylpiperidin-1-yl)-5′-fluoro-6-methyl-6′-[2-(2-methylphenyl)ethoxy]-[3,3′-bipyridine]-5-yl]acetic acid]	3
CC1(C)CCN(c2c(-c3ccc(OCCc4ccc(F)cc4)cc3)c(N)nc(Cl)c2[C@H](OC(C)(C)C)C(=O)O)CC1 [Example 206, (S)-2-(6-Amino-2-chloro-4-(4,4-dimethylpiperidin-1-yl)-5-(4-(4-fluorophenethoxy)phenyl)pyridin-3-yl)-2-(tert-butoxy)acetic acid]	2

Same assay, conditions: MT-2 cells infected with NL-RLuc virus, 5 days of incubation, 10% FBS, at least 2 experiments

Compound	EC50 [nM]
Cc1nc(Nc2ccnc(F)c2)c(-c2ccc(OCCc3ccc(F)cc3)cc2)c(N2CCC(C)(C)CC2)c1[C@H](OC(C)(C)C)C(=O)O [Example 96, (S)-2-(tert-Butoxy)-2-(4-(4,4-dimethylpiperidin-1-yl)-5-(4-(4-fluorophenethoxy)phenyl)-6-((2-fluoropyridin-4-yl)amino)-2-methylpyridin-3-yl)acetic acid]	21
